Results from patent US8465983B1, “Detection and delivery systems utilizing supported lipid bilayers” (priority 2005, dated 2013).

Key:
[1] = Superquenching of MS-PPE by AQS, flow cytometry; conditions: 10 μM AQS, 2.5×10^5 MS-PPE in 200 μL PBS
Procedure: Bead suspensions of 2.5×10^5 PPE-coated microspheres in 200 μL PBS were analyzed using a FACScan flow cytometer (Becton-Dickinson, Sunnyvale, Calif.) with excitation at 488 nm. Fluorescence signals were acquired on the FL-1 channel (525 nm) using log amplification and analyzed with the CellQuest software.
The effect of the quencher, AQS, on the fluorescence of MS-PPE was determined by adding different concentrations of AQS and immediately reading the fluorescence by flow cytometry (FIG. 14A) or by fluorimetry (FIG. 14B). Adding AQS to the suspension of MS-PPE decreased the fluorescence emission intensity in an AQS-concentration-dependent manner (FIGS. 14A and B). The quenching of the MS-PPE as detected by both fluorimetry and flow cytometry, could be described by a conventional Stern-Volmer equation: Io/I=1+KSV[Q] where Io and I represent the fluorescence intensities in the absence and in presence of the AQS, and KSV is the Stern-Volmer quenching constant. However, the fluorimeter was not sensitive enough to detect the lower fluorescence (higher quenching) when AQS was added to MS-PPE at concentrations higher than 5 μM. The values of KSV obtained by flow cytometry and fluorimetry were 0.78×10^6 M^−1, and 0.79×10^6 M^−1, respectively. The correlation coefficient for the more sensitive flow cytometry was higher than that obtained by fluorimetry. […]

[2] = tested on: DMPG lipid bilayer supported on MS-PPE; assay: Superquenching flow cytometric assay for disruption of DMPG lipid bilayer supported on MS-PPE; type: biochemical; conditions: 10 μM AQS, no disruptor, real-time kinetics
Procedure: Lipid bilayers were disrupted by adding TRITON X-100 detergent to the bead suspension to a final concentration of 0.25% (w/v).
Bead suspensions of 2.5×10^5 DMPG-coated MS-PPE in 200 μL of PBS were analyzed using a FACScan flow cytometer (Becton-Dickinson, Sunnyvale, Calif.) with excitation at 488 nm. Fluorescence signals were acquired on FL-1 channel (525 nm) using log amplification and analyzed with the CellQuest software. Kinetic analysis of disruption of supported lipid bilayer by melittin was performed by acquiring real-time data with continuous mixing of samples (10^6 MS-PPE in 800 μl of PBS) using a magnetic stirrer. The raw data were analyzed using IDL Query software developed by Bruce Edwards (Cancer Center, University of New Mexico, Albuquerque, N. Mex.).
Because an anionic lipid was used to form a lipid bilayer around MS-PPE, it was expected that MLT will disrupt the DMPG lipid bilayer by such a detergent-like action. This was tested by adding 10 μM AQS to DMPG-coated MS-PPE followed by treatment with one of the following: TRITON X-100 detergent, synthetic MLT (sMLT), or natural MLT (nMLT) and immediately reading the fluorescence by flow cytometry. […] These histograms resemble the ones reported previously for MS-PPE, without a lipid coating, in absence and in presence of AQS.
From FIG. 18, the association constant (corresponding to the reciprocal of the point of half saturation) for nMLT and sMLT with DMPG were 5×10^6 M^−1 and 1.7×10^6 M^−1, respectively. […] Lower concentrations of nMLT, in comparison to sMLT, were required to disrupt the DMPG lipid bilayer. This might be attributed to the fact that nMLT contains some phospholipase A2 (PLA2) as a contaminant. PLA2 has a high affinity for anionic phospholipids, with an association constant of 0.5×10^10 M^−1 (Kim et al., Anal. Chem. 250, 109-116 (1997)), which is about 3000 fold higher than that of MLT. Although PLA2 activity requires calcium, which is not present in the experimental system, it has been reported that even upon addition of EDTA to natural MLT, PLA2 maintains its activity, probably due to formation of a tight complex with calcium with PLA2 (Dempsey, C. E. Biochim. Biophys. Acta 1990, 1031, 143-161).
The kinetics of disruption of supported lipid bilayer by MLT were monitored by measuring real-time changes in fluorescence intensity by flow cytometry (FIG. 19). Suspensions of 10^6 DMPG-coated MS-PPE in 800 μL of PBS were treated with AQS at a final concentration of 10 μM, then with either sMLT, TRITON X-100 detergent, or no treatment. […] Treatment with sMLT in the absence of AQS led to an increase in normalized fluorescence (FIG. 19, trace A). This can be attributed to disruption of the lipid bilayer by sMLT, and is consistent with a reversal of the slight quenching of fluorescence caused by the formation of a DMPG lipid bilayer over MS-PPE. Addition of AQS alone to DMPG-coated MS-PPE (FIG. 19, trace C) led to a 20% reduction in fluorescence as reported earlier. Addition of TRITON X-100 detergent to DMPG-coated MS-PPE after the addition of AQS (first dip in trace E, FIG. 19) caused immediate decrease in fluorescence to ˜10% of its original value (second dip in trace E, FIG. 19). In contrast, addition of sMLT, after the addition of AQS, (FIG. 19, trace D) led to a gradual reduction of fluorescence intensity to ˜20% of the original value. Although MLT forms dimers at high concentrations (Dempsey, C. E. Biochim. Biophys. Acta 1990, 1031, 143-161), it is monomeric at the concentrations used in this study. On the other hand, TRITON X-100 detergent forms micelles at the concentration used in this study.

[3] = tested on: anionic phospholipids; assay: Affinity of PLA2 for anionic phospholipids (Kim et al.); type: binding
[4] = tested on: anionic phospholipids; conditions: Kim et al. 1997; cited from earlier work
[5] = tested on: cholesterol (10%, molar ratio) containing lipid membrane on porous particles; assay: Release of dye from porous particles coated with cholesterol-containing lipid membrane by streptolysin-O; type: biochemical; conditions: even at low concentrations; 25° C. and 37° C.
Procedure: FIGS. 22A-B illustrate one aspect of the invention—drug and/or dye release from the present lipid-coated particles. FIG. 22A is a graph showing release of dye from porous particles (containing dye inside) where the particles are coated with a cholesterol (10%, molar ratio) containing lipid membrane. As increasing amounts of streptolysin-O are added (solid square symbols represent lower concentration than solid ovals), more dye is released. […] FIG. 22B illustrates how streptolysin-O can disrupt cholesterol-containing lipid bilayer membranes, leading to release of materials (e.g., drugs or antibiotics) enclosed within the membrane. Streptolysin-O is an anti-microbial protein that preferably binds to cholesterol and can disrupt cholesterol-containing membranes.

O=C1c2ccc(S(=O)(=O)O)cc2C(=O)c2ccc(S(=O)(=O)O)cc21 [AQS, 9,10-anthraquinone-2,6-disulfonic acid]
reduction in fluorescence (normalized mean channel fluorescence) [1]: 90% | reduction in fluorescence of DMPG-coated MS-PPE on addition of AQS alone [2]: 20%

PLA2: phospholipase A2, lipolytic enzyme, contaminant of natural melittin
association constant higher than that of MLT [3]: about 3000 fold | association constant [4]: 5e+09 M⁻¹

streptolysin-O: anti-microbial protein that preferably binds to cholesterol and can disrupt cholesterol-containing membranes
release of dye compared with control without streptolysin-O [5]: greater than observed for control
